The target of test [1] is T1, MraY from S. aureus (Staphylococcus aureus, UniProt Q2FZ93).
T1 construct: made in house; host or cells: E. coli Lemo21
Also on record: method as in PMID 29438582. To be noted: reference compound in Table 1; same value as given in b6; read-out: IC50, in vitro inhibitory activity against MraY from S. aureus; cited from earlier work.

The subject of a further test is E. coli. The test is described as follows: Antibacterial activity (MIC) against E. coli. In kind it is cell-based. As to conditions: Escherichia coli, not active. The procedure: Muraymycin analogues 10–17 were also studied for their antibacterial activities against E. coli, but were not active (MIC > 50 μg/mL).
Test [2] deals with T1, MraY from S. aureus. The test is described as follows: Fluorescence-based in vitro MraY inhibition assay (dansylated Park's nucleotide, crude membrane preparation). In kind it is biochemical. As to conditions: for IC50: crude membrane preparation of MraY heterologously overexpressed in E. coli, triplicates, mean ± standard deviation, read-out: IC50, in vitro inhibitory activity against MraY from S. aureus; for fold weaker MraY inhibition than (6′S)-counterpart: (6′R)-derivatives 12 and 13 vs. 10 and 11, respectively. The procedure:
Target compounds 10–17 were tested in vitro for their inhibitory potency towards the bacterial target enzyme MraY. Therefore, a previously reported fluorescence-based assay was employed, using dansylated Park’s nucleotide and MraY from S. aureus (recombinantly overexpressed in E. coli).
The overexpression of MraY was performed as described before. A plasmid containing the mraY gene was transformed into E. coli Lemo21 cells, which were plated on lysogeny broth (LB) agar containing kanamycin (50 μg/mL) and chloramphenicol (30 μg/mL). A single colony was picked to induce an overnight culture (10 mL) of LB media containing kanamycin (50 μg/mL) and chloramphenicol (30 μg/mL), which was incubated at 37 °C and 180 rpm for 16 h. A culture of LB media (500 mL) containing kanamycin (50 μg/mL), chloramphenicol (30 μg/mL), and L-rhamnose (1 mM) was inoculated with the overnight culture (500 μL) and then grown at 37 °C and 180 rpm to OD600 0.6. Subsequently, MraY expression was induced with IPTG (1 mM) and the culture was incubated at 37 °C and 180 rpm for 4 h. Cells were then centrifuged and the pellet was resuspended in buffer A (50 mM Tris-HCl buffer pH 7.5, 1 mM MgCl2, 2 mM β-mercaptoethanol, 15 mL overall). Egg white lysozyme (spatula tip), DNAse I (spatula tip), and cOmplete^TM EDTA-free protease inhibitor cocktail (one tablet) were added. Cells were lysed using sonication and then incubated at 4 °C for 30 min. The lysate was centrifuged and the supernatant was centrifuged again. The resultant pellet was resuspended in buffer A (1.7 mL), flash frozen in liquid nitrogen and stored at −80 °C (aliquots of 20 μL). This MraY-containing crude membrane preparation (overall protein concentration ~20.5 mg/mL as determined by OD280) was diluted with water (final overall protein concentration 1 mg/mL) and then directly used for MraY activity assays without further purification.
The assay was performed as described before. The crude membrane preparation of MraY from S. aureus (1 μL, vide supra) was added to a mixture of undecaprenyl phosphate (50 μM), dansylated Park′s nucleotide (7.5 μM), and the tested compound (at varying concentrations) in buffer (100 mM Tris-HCl buffer pH 7.5, 200 mM KCl, 10 mM MgCl2, 0.1% Triton X-100, 20 μL overall). Fluorescence of the assay mixtures over time was monitored at λex = 355 nm and λem = 520 nm (plate reader, 384-well plate format). MraY activity at a certain inhibitor concentration was determined using linear regression from 0 to 2 min. This measure of activity was plotted against logarithmic inhibitor concentrations and fitted using a sigmoidal fit. This procedure furnished IC50 values with standard deviations.

Molecules are shown by their SMILES. Like-named read-outs stand apart in the source and are kept apart here. Where only a bound is given, the exact number is not on record here.

T1 sequence (Q2FZ93 whole entry): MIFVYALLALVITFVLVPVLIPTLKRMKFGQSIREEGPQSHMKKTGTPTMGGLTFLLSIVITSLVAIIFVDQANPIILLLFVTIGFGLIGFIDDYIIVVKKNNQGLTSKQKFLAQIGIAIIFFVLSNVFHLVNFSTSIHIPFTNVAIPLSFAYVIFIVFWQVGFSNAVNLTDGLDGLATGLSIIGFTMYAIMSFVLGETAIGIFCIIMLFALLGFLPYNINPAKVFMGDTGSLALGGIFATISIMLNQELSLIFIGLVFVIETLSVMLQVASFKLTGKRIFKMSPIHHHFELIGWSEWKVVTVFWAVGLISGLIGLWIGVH

What is called IC50 is the concentration that inhibits the measured activity by half. With `CC(C)[C@H](NC(=O)N[C@H](C(=O)N[C@H](C(=O)NCCCN[C@@H](C[C@H]1O[C@@H](n2ccc(=O)[nH]c2=O)[C@H](O)[C@@H]1O)C(=O)O)[C@@H](O)C(C)C)[C@@H]1CCNC(=N)N1)C(=O)O` [Compound 9], the IC50 at MraY from S. aureus [1] is 0.095 ± 0.019 µM.

One may read the MIC as the least concentration at which growth counts as inhibited. Read a high MIC as a need for much substance. `CC(C)C[C@H](NC(=O)[C@H](CCCCN)NC(=O)N[C@H](C(=O)O)C(C)C)C(=O)NCCCN[C@@H](C[C@H]1O[C@@H](n2ccc(=O)[nH]c2=O)[C@H](O)[C@@H]1O)C(=O)O` [Compound 10, 5′-deoxy-L-Leu muraymycin analogue] showed an MIC in the test on E. coli greater than 50 µg/mL. Also, the “fold loss in inhibitory potency (MraY) vs. 9” value on MraY from S. aureus [2] (compounds 10 vs. 9, epicapreomycidine replaced by L-lysine, nonhydroxylated L-leucine) is ~ 26 fold. Also, the IC50 at MraY from S. aureus [2] worked out at 2.5 ± 0.6 µM.

In the case of `CC(C)C[C@@H](NC(=O)[C@H](CCCCN)NC(=O)N[C@H](C(=O)O)C(C)C)C(=O)NCCCN[C@@H](C[C@H]1O[C@@H](n2ccc(=O)[nH]c2=O)[C@H](O)[C@@H]1O)C(=O)O` [Compound 11, 5′-deoxy-D-Leu muraymycin analogue], the MIC in the test on E. coli is greater than 50 µg/mL. For the same molecule, the IC50 on MraY from S. aureus [2] was determined as 2 ± 0.6 µM.

Turning to `CC(C)C[C@H](NC(=O)[C@H](CCCCN)NC(=O)N[C@H](C(=O)O)C(C)C)C(=O)NCCCN[C@H](C[C@H]1O[C@@H](n2ccc(=O)[nH]c2=O)[C@H](O)[C@@H]1O)C(=O)O` [Compound 12, 5′-deoxy-6′-epi-L-Leu muraymycin analogue], the MIC against E. coli is greater than 50 µg/mL. For the same molecule, at MraY from S. aureus [2], the “fold weaker MraY inhibition than (6′S)-counterpart” value turned out to be 15 fold and the half-inhibitory concentration (IC50) turned out to be 38 ± 6 µM.

In the test with E. coli, `CC(C)C[C@@H](NC(=O)[C@H](CCCCN)NC(=O)N[C@H](C(=O)O)C(C)C)C(=O)NCCCN[C@H](C[C@H]1O[C@@H](n2ccc(=O)[nH]c2=O)[C@H](O)[C@@H]1O)C(=O)O` [Compound 13, 5′-deoxy-6′-epi-D-Leu muraymycin analogue] came in with an MIC greater than 50 µg/mL. Moreover, at MraY from S. aureus [2], the “fold weaker MraY inhibition than (6′S)-counterpart” value is 12 fold and the IC50 turned out to be 24 ± 9 µM.

In the case of `CC(C)C[C@H](NC(=O)[C@H](CCCCN)NC(=O)N[C@H](C(=O)O)C(C)C)C(=O)NCCCN[C@@H](C(=O)O)[C@H](O)[C@H]1O[C@@H](n2ccc(=O)[nH]c2=O)[C@H](O)[C@@H]1O` [Compound 14, 6′-epi-L-Leu muraymycin analogue], the MIC against E. coli was greater than 50 µg/mL. Further, the IC50 at MraY from S. aureus [2] was determined as 10 ± 4 µM.

In the case of `CC(C)C[C@@H](NC(=O)[C@H](CCCCN)NC(=O)N[C@H](C(=O)O)C(C)C)C(=O)NCCCN[C@@H](C(=O)O)[C@H](O)[C@H]1O[C@@H](n2ccc(=O)[nH]c2=O)[C@H](O)[C@@H]1O` [Compound 15, 6′-epi-D-Leu muraymycin analogue], in the test with E. coli, the MIC was greater than 50 µg/mL. The IC50 at MraY from S. aureus [2] was found to be 10 ± 2 µM.

The molecule `CC(C)C[C@H](NC(=O)[C@H](CCCCN)NC(=O)N[C@H](C(=O)O)C(C)C)C(=O)NCCCN[C@H](C(=O)O)[C@@H](O)[C@H]1O[C@@H](n2ccc(=O)[nH]c2=O)[C@H](O)[C@@H]1O` [Compound 16, 5′-epi-L-Leu muraymycin analogue] had an MIC with E. coli greater than 50 µg/mL. In addition, the “fold more active (MraY) than D-leucine epimer 17” value on MraY from S. aureus [2] (16 vs. 17) is on record as ~ 3 fold. Also, the IC50 on MraY from S. aureus [2] stood at 6.2 ± 2.8 µM.

For the molecule `CC(C)C[C@@H](NC(=O)[C@H](CCCCN)NC(=O)N[C@H](C(=O)O)C(C)C)C(=O)NCCCN[C@H](C(=O)O)[C@@H](O)[C@H]1O[C@@H](n2ccc(=O)[nH]c2=O)[C@H](O)[C@@H]1O` [Compound 17, 5′-epi-D-Leu muraymycin analogue], in the test on E. coli, the MIC was greater than 50 µg/mL. For the same molecule, the IC50 at MraY from S. aureus [2] was determined as 21 ± 4 µM.

Source of the values: PMC6278576, “Analogues of Muraymycin Nucleoside Antibiotics with Epimeric Uridine-Derived Core Structures” (Molecules, 2018).
